{"source": "patent US5597822A", "about": "“Pharmaceutical compositions for the prevention and/or treatment a gastrointestinal diseases” (Egis Pharmaceutical, priority 1993, dated 1997)", "key": {"Helicobacter pylori": {"tested_on": "Helicobacter pylori", "assay": "Antibacterial effect on Helicobacter pylori (MIC, blood agar)", "type": "cell-based", "settings": "for MIC: Helicobacter pylori, 72 h", "protocol": "Helicobacter pylori strains used in these experiments were obtained from the biopsial samples of the stomachs of patients suffering from ulcerative diseases of the gastrointestinal system. From the pure culture of isolates a thick suspension was prepared with cysteine-inositol solution suitable for lyophilisation, and the suspension obtained was maintained in cold-resistant plastic ampoules in a deep-freezing chamber at a temperature of about -196 ° C. For the determination of the inhibitory effect of the compounds tested on Helicobacter pylori, blood agar containing 10 mg/liter of vancomycin and 25 mg/liter of amphotericin B was used /C. A. M. McNulty and I. C. Dent: Susceptibility of clinical isolates of Campylobacter pylori to twenty one antimicrobial agents. Book of Abstracts, 4th European Congress of Clinical Microbiology, Nice (1989)/.\nThe plates containing the strains were cultivated at 37° C. for 72 hours under a gaseous atmosphere containing 10 per cent of carbon dioxide and 5 per cent of oxygen /D. M. Jones et al., J. Clin. Pathol., 37, 1002 (1984)/.\nThe culture media were inoculated by diluting the broth culture of the strains grown overnight or with a suspension prepared from a culture obtained on a solid medium. About 10^5 of germs were applied to the surface of each plate.\nA series of dilution were prepared from the compound to be-tested. The MIC (minimal inhibiting concentration) value of the compounds tested was considered to be the lowest concentration inhibiting the growth of the test organism completely."}, "[1]": {"tested_on": "gastric erosions induced by ethanol containing hydrochloric acid", "assay": "Test with ethanol containing hydrochloric acid (gastric erosions)", "type": "in vivo, rat", "settings": "po; rat, p.o., HCl/absolute ethanol 1 to 50; erosion index; read-out: Inhibition of the erosion index, ED50 p.o.", "protocol": "(§1) Rats of both sexes weighing 200 to 250 g, each previously starved for 24 hours, were used in this experiment. The lesions of gastric mucosa were induced by the oral administration of absolute ethanol in a dose of 1 ml/animal. After one hour following the administration, the animals were killed by an overdose of ether, the stomach was excised and the alterations of gastric mucosa were examined. The lengths of the erosions were measured and summarized (expressed in mm) for each stomach to obtain the erosion index by calculating the average value of the group. The inhibition was calculated in percentage by comparing the value of the group treated with ethanol to that of the control group treated only with the vehicle. Various doses of the compounds to be tested were administered, perorally, in a volume of 5 ml/kg using a pretreatment time of 60 minutes. Eight rats were used for each dose. /A. Robert, Gastroenterology 77, 761-767 (1979)/.\nThe principle of the method consists in that, simultaneously with the administration of absolute ethanol, hydrochloric acid is introduced to the stomach. Thus, the influence on systemic gastric acid inhibition action can be eliminated by the presence of the exogenous acid.\nThe reagent used in this test was a mixture of concentrated aqueous hydrochloric acid and absolute ethanol in a mass ratio of 1 to 50 in accordance with the dilution ratio used by Yamazaki et al., see Japan J. Pharmacol., 55, 415-424 (1991). Otherwise, the experiment was performed as described under test 2.1., however, in addition to the erosion index calculated from the lengths of the erosions in mm, the ratio of occurence of animals showing at least one gastric erosion within a test group, i.e. the erosion frequency, was also evaluated."}, "gastric acid secretion": {"tested_on": "gastric acid secretion", "assay": "Effect on the gastric acid secretion (Shay's method, pylorus ligation)", "type": "in vivo, Wistar rats", "settings": "rat, p.o., test according to Shay", "protocol": "The influence of the compounds on the gastric acid secretion was examined on starved Wistar rats of both sexes weighing 180 to 240 g each by using Shay's method /H. Shay et al., Gastroenterology, 5, 45 (1945)/. The compounds to be tested were given, perorally, 3 hours before the ligation of the pylorus. Four hours after the operation, the animals were killed by an overdose of ether, the stomach was excised, the stomach content was centrifuged and the free hydrochloric acid content of the gastric juice was determined by titration in the presence of Topfer's reagent. The percentage of inhibition and then the ED50 values were determined by calculating average values for the groups and comparing those to the average values for the control group."}, "[2]": {"tested_on": "gastric mucosa lesions induced by absolute ethanol", "assay": "Gastroprotective activity, test with absolute ethanol (gastric mucosa erosions)", "type": "in vivo, rat", "protocol": "as §1\n^x Relative activity = ED50 value of the gastric acid inhibition\nrelated to the ED50 value of the inhibition of the gastric erosion."}}, "data": [{"molecule": "NC[C@H]1CC[C@H](C(=O)Oc2ccc(CCC(=O)O)cc2)CC1", "note": "[cetraxate, trans-3-[4-[4-(aminomethyl)cyclohexylcarbonyloxy]phenyl]-propionic acid, reference compound]", "values": [{"measurement": "MIC", "setting": "Helicobacter pylori; Table IV, strains not specified, unit inferred", "result": "> 500", "unit": "µg/mL"}, {"measurement": "MIC", "setting": "Helicobacter pylori; strain 867/90", "result": "> 500", "unit": "µg/mL"}, {"measurement": "MIC", "setting": "Helicobacter pylori; strain 1596", "result": "> 500", "unit": "µg/mL"}, {"measurement": "MIC", "setting": "Helicobacter pylori; strain 3842", "result": "> 500", "unit": "µg/mL"}, {"measurement": "MIC", "setting": "Helicobacter pylori; strain 6656", "result": "> 500", "unit": "µg/mL"}, {"measurement": "MIC", "setting": "Helicobacter pylori; strain 6709", "result": "> 500", "unit": "µg/mL"}, {"measurement": "effect on Helicobacter pylori (in words)", "setting": "Helicobacter pylori; Table IV", "result": "ineffective at the concentration indicated"}, {"measurement": "ED50", "setting": "[1]", "result": 22, "unit": "mg/kg"}, {"measurement": "gastric acid secretion inhibition (in words)", "setting": "gastric acid secretion", "result": "only a moderate gastric acid secretion inhibition"}, {"measurement": "ED50", "setting": "[2]; po, rat, 60 min pretreatment, absolute ethanol 1 ml/animal, erosion index", "result": 76.4, "unit": "mg/kg"}, {"measurement": "gastroprotective activity (in words)", "setting": "[2]; test with absolute ethanol", "result": "nearly identical activity"}]}]}
